Test results from patent publication US4199500A, “Peptides related to somatostatin” (Eli Lilly and Company, priority 1978, dated 1980).
Positions of bridges follow the written chain, without caps; N, C: chain ends. Non-standard residues stand in square brackets, D forms with d. Residues, ends and D or L forms follow the SMILES beside them.

How the values were obtained:
[1] = system: growth hormone (GH) secretion; test: Growth Hormone Inhibition In Rats (pentobarbital-stimulated GH secretion, serum GH by radioimmunoassay); assay type: in vivo; settings: male rats; for % Inhibition of GH release (as compared to control): compared to saline control; for Serum Growth Hormone Conc. Mean ± SEM: sodium pentobarbital 4 mg/rat I.P., 20 minutes after dosing
Description: A. Growth Hormone Inhibition In Rats:
This test is a modification of the method of P. Brazeau et al. Endocrinology, 94, 184 (1974). Male rats (weighing 100-110 g.) are divided into three groups of eight rats each. Each rat is administered sodium pentobarbital at a dose of 4 mg/rat (I.P.) to stimulate growth hormone (GH) secretion. Simultaneously, one group of rats receives the test compound (S.C.); the second group receives somatostatin (S.C.); and the third group (control) receives saline (S.C.). Twenty-minutes later, the animals are decapitated and blood samples are collected. The serum concentration of growth hormone (GH) is determined by radioimmunoassay. The mean GH concentration (± standard error of the mean) is calculated for each group. The percent inhibition of GH release (as compared to saline controls) is then calculated for the test compound and for somatostatin. When tested as above-described, the peptide of Example 4 (D-Ala^2, Ala^5, D-Trp^8, Val^10, D-Phe^11 -Somatostatin) representative of the peptides of Formula III, gave the results set forth below in Table I: […]

[2] = system: serum insulin; test: Insulin Inhibition In Dogs (I.V. infusion, L-alanine stimulation, serum insulin by radioimmunoassay); assay type: in vivo, dog
Description: (§1) B. Insulin and Glucagon Inhibition In Dogs:
(§2) A normal dog is fasted overnight. An intravenous (I.V.) infusion of the test compound (dissolved in saline) is begun. Thirty minutes thereafter an additional infusion of L-alanine (dissolved in saline) is begun and is continued for a total of 15 minutes so that a total dose of about 1 mmole of L-alanine per kg. body weight is given. Infusion of the test compound is continued for an additional 15 minute period.
(§3) Blood samples are taken periodically before (at -20, -10 and -1 minutes) and after (5, 10, 15, 30, 35, 40, 45, 50, 60, 90, 120 and 150 minutes) the start of the infusion of the test compound. The serum insulin and serum glucagon concentrations in the blood are determined by radioimmunoassay. A plot is made of the glucagon and insulin concentrations versus time. The plot obtained from the test compound is compared to plots obtained from somatostatin and saline (controls) in similar experiments.
(§4) Infusion of L-alanine (in the absence of somatostatin or active test compound) causes an abrupt increase in serum insulin and glucagon concentrations. The concentrations return to basal levels after the L-alanine infusion is terminated.

[3] = system: serum glucagon; test: Glucagon Inhibition In Dogs (I.V. infusion, L-alanine stimulation, serum glucagon by radioimmunoassay); assay type: in vivo, dog
Description: as §1, §2, §3, §4

[4] = normal fasted dog, I.V. infusion 0.237 μg/Kg./min, L-alanine infusion
[5] = dog, in the presence of L-alanine
[6] = dog, infusion alone (no L-alanine)

CC(C)[C@@H]1NC(=O)[C@H](CCCCN)NC(=O)[C@@H](Cc2c[nH]c3ccccc23)NC(=O)[C@H](Cc2ccccc2)NC(=O)[C@H](Cc2ccccc2)NC(=O)[C@H](C)NC(=O)[C@H](CCCCN)NC(=O)[C@@H](NC(=O)[C@@H](C)NC(=O)[C@H](C)N)CSSC[C@@H](C(=O)O)NC(=O)[C@H](CO)NC(=O)[C@H]([C@@H](C)O)NC(=O)[C@@H](Cc2ccccc2)NC1=O [Example 4, L-Alanyl-D-alanyl-L-cysteinyl-L-lysyl-L-alanyl-L-phenylalanyl-L-phenylalanyl-D-tryptophyl-L-lysyl-L-valyl-D-phenyl-alanyl-L-threonyl-L-seryl-L-cysteine cyclic (3->14) disulfide] (H-A[dA]CKAFF[dW]KV[dF]TSC-OH; disulfide 3-14)
% Inhibition of GH release (as compared to control) ([1]; dose 2 mg/kg S.C.): 7.8%
Serum Growth Hormone Conc. Mean ± SEM ([1]; dose 2 mg/kg S.C.): 61 ± 24 ng/mL
% Inhibition of GH release (as compared to control) ([1]; dose 50 mg/kg S.C.): 66%
Serum Growth Hormone Conc. Mean ± SEM ([1]; dose 50 mg/kg S.C.): 97 ± 39 ng/mL
inhibition of insulin concentration [2, 4]: no significant inhibition
inhibition of glucagon concentration [3, 4]: no significant inhibition

C[C@H](N)C(=O)NCC(=O)N[C@H]1CSSC[C@@H](C(=O)O)NC(=O)[C@H](CO)NC(=O)[C@H]([C@@H](C)O)NC(=O)[C@H](Cc2ccccc2)NC(=O)[C@H]([C@@H](C)O)NC(=O)[C@H](CCCCN)NC(=O)[C@H](Cc2c[nH]c3ccccc23)NC(=O)[C@H](Cc2ccccc2)NC(=O)[C@H](Cc2ccccc2)NC(=O)[C@H](CC(N)=O)NC(=O)[C@H](CCCCN)NC1=O [Somatostatin]
% Inhibition of GH release (as compared to control) ([1]; dose 2 mg/kg S.C.): 63%
Serum Growth Hormone Conc. Mean ± SEM ([1]; dose 2 mg/kg S.C.): 105 ± 69 ng/mL
% Inhibition of GH release (as compared to control) ([1]; dose 50 mg/kg S.C.): 93%
effect on increase in insulin concentration induced by L-alanine [2, 5]: inhibits the increase
effect on basal serum concentration of insulin [2, 6]: causes a decrease
effect on increase in glucagon concentration induced by L-alanine [3, 5]: inhibits the increase
effect on basal serum concentration of glucagon [3, 6]: causes a decrease
